Data as given in article PMC4449299 (Developmental cell, 2015).

T1: AHD (anillin-homology domain of anillin, 712-981) (Homo sapiens, UniProt Q9NQW6)
T1 sequence (Q9NQW6 712-981): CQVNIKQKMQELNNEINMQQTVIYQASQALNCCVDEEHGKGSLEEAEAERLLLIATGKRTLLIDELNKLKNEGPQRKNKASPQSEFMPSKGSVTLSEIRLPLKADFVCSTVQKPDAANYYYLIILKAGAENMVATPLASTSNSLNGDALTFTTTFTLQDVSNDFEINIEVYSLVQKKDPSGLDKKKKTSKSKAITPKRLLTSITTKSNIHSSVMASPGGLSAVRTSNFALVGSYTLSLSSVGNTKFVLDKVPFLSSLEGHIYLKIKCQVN

T2: Mid1 (C-terminal domain, 579-920) (Schizosaccharomyces pombe, UniProt P78953)
T2 sequence (P78953 579-920): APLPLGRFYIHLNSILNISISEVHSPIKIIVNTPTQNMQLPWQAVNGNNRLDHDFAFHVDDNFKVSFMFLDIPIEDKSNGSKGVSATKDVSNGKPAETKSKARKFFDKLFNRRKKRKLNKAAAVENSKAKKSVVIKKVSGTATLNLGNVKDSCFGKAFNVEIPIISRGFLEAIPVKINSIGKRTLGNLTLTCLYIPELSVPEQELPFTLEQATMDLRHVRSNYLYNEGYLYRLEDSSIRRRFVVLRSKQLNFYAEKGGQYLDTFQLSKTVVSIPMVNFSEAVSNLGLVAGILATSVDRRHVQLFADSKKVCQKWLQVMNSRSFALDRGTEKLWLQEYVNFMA


How the values were obtained:
AHD-PH + RhoA* = AHD-PH + RhoA* (Homo sapiens, UniProt Q9NQW6); assay: SPR, L1 chip, liposomes; type: binding; conditions: PI(4,5)P2 vesicles; with lipid-modified RhoA; room temperature
[1] = target: T1, AHD (anillin-homology domain of anillin, 712-981); assay: SPR, L1 chip, liposomes; type: binding; conditions: PI(4,5)P2 vesicles; room temperature
[2] = target: T2, Mid1 (C-terminal domain, 579-920); assay: SPR, L1 chip, liposomes; type: binding; conditions: PI(4,5)P2 vesicles; dimeric Mid1; given as 'up to'; room temperature
RhoA(181)-Q63L = RhoA(181)-Q63L (UniProt P61586 1-181, Q63L); assay: ITC
Chain of RhoA(181)-Q63L (P61586 1-181 Q63L): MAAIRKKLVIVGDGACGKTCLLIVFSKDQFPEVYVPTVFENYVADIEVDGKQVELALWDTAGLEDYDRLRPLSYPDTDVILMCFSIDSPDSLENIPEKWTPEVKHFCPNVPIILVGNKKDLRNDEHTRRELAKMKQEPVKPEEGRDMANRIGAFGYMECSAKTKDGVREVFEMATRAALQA

Chain of AHD-PH + RhoA* (Q9NQW6 712-1124): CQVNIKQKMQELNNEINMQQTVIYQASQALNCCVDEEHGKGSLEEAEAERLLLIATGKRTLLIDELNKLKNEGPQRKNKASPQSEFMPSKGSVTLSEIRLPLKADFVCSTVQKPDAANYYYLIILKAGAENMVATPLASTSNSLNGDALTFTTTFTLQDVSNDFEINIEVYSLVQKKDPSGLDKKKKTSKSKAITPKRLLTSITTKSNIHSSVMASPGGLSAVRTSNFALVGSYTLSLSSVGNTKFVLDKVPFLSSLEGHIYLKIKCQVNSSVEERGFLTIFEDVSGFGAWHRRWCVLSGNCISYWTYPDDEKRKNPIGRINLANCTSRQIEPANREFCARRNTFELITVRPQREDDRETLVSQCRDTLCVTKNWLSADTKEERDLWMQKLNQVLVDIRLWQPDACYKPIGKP
Chain of AHD-PH + RhoA* (P61586 1-190 partner): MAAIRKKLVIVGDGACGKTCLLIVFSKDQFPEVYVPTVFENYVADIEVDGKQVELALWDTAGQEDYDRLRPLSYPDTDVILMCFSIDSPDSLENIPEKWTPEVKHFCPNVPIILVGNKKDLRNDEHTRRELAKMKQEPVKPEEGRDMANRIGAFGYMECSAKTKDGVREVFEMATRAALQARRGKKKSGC

Molecule	Kd (AHD-PH + RhoA*) [nM]	Kd [1] [µM]	Kd [2] [nM]	dH (RhoA(181)-Q63L) [kcal/mol]
PI(4,5)P2	~280	~14	120	
anillin-homology domain (AHD) of human anillin (712–981) (domain or fragment, UniProt Q9NQW6 712-981, looked up) CQVNIKQKMQELNNEINMQQTVIYQASQALNCCVDEEHGKGSLEEAEAERLLLIATGKRTLLIDELNKLKNEGPQRKNKASPQSEFMPSKGSVTLSEIRLPLKADFVCSTVQKPDAANYYYLIILKAGAENMVATPLASTSNSLNGDALTFTTTFTLQDVSNDFEINIEVYSLVQKKDPSGLDKKKKTSKSKAITPKRLLTSITTKSNIHSSVMASPGGLSAVRTSNFALVGSYTLSLSSVGNTKFVLDKVPFLSSLEGHIYLKIKCQVN				3.97
